In US6495133B1, “Gliocladium roseum strains useful for the control of fungal pathogens in plants” (priority 1998, dated 2002):
Like-named read-outs stand apart in the source and are kept apart here.

Key:
Fusarium solani [1] = assay: Control of fusarium root rot in field pea, field experiments; format: in vivo
field pea = assay: Comparison and compatibility of ACM941 with thiram fungicide, field pea, field experiments; format: in vivo
Fusarium solani [2] = assay: Control of fusarium root rot in field pea, growth room experiments; settings: Field pea (cv. Radley)
Method: (§1) In growth room experiments, seeds were planted in wood planting flats (35.5×47.0×9.0 cm) containing soil mixture of 2:1:1 of soil, perlite and peat moss. The soil mixture was pasteurized and mixed at about 2% v/v with artificially infested vermiculite that was moistened with 0.4% malt extract, autoclaved, inoculated with B. solani, and incubated at 20° C. for 7 days prior to the planting. […] For each treatment 100 seeds were planted in each of the 4-replicate flats. The planted flats were placed in a growth room maintained at 20° C. and with a 14-h photoperiod at 350 mol.m^−2.s^−1 light intensity by fluorescent and incandescent lamps. All experiments were arranged in a completely randomized block design. Emergence was counted 7 days after planting and other parameters were assessed after digging out plants 14 to 16 days after planting. Disease severity was rated on a scale of 0 (no visible lesions on lower stem and roots, seedling is well developed) to 9 (death of plant, the seedling died back quickly after emergence).

Aphanomyces euteiches = assay: Control of aphanomyces root rot in field pea, field experiments; format: in vivo
Rhizoctonia solani = assay: Control of rhizoctonia root rot in field pea, field experiments; format: in vivo
Fusarium oxysporum = assay: Control of fusarium wilt in field pea, growth room experiments; settings: Field pea (cv. Radley)
Method: as §1

Sclerotinia sclerotiorum [3] = assay: Control of sclerotinia rot in field pea, growth room experiments
Method: as §1
The seed treatment procedures, inoculum preparation, inoculation and assessment methods for both growth room and field experiments were the same as described above.

Sclerotinia sclerotiorum [4] = assay: Control of sclerotinia rot in field pea, field experiments; format: in vivo
[5] = test system: Fusarium graminearum, Bipolaris sorokiniana, F. avenaceum, Alternaria alternata, and other Fusarium species (naturally infected seeds); format: in vivo
Fusarium oxysporium = assay: Control of fusarium wilt in field pea, field experiments; format: in vivo
Mycosphaerella pinodes = assay: Control of mycosphaerella seedling blight/root rot in field pea, growth room experiments; settings: Field pea (cv. Radley)
Method: as §1

[6] = Lacombe site, average of two cultivars and two years
[7] = Morden site, average of two cultivars and two years
[8] = barley, average of the two cultivars

CN(C)C(=S)SSC(=S)N(C)C [Thiram, thiram]
Emergence (Fusarium solani [1]; 1996, AC Tamor): 76.1 a
Yield (Fusarium solani [1]; 1996, AC Tamor): 5374 a
Emergence (Fusarium solani [1]; 1996, Radley): 81.4 a
Yield (Fusarium solani [1]; 1996, Radley): 3674 a
Emergence (Fusarium solani [1]; 1997, AC Tamor): 66.2 a
Yield (Fusarium solani [1]; 1997, AC Tamor): 5600 a
Emergence (Fusarium solani [1]; 1997, Radley): 65.7 b
Yield (Fusarium solani [1]; 1997, Radley): 3379 a
increased emergence by (field pea; [6]): 4%
reduced yield by (field pea; [6]): 4%
Emergence (field pea; Lacombe, Alberta, 1996, Grande): 87.2 a
Yield (field pea; Lacombe, Alberta, 1996, Grande): 8729 a
Emergence (field pea; Lacombe, Alberta, 1996, Radley): 84.0 a
Yield (field pea; Lacombe, Alberta, 1996, Radley): 5782 a
Emergence (field pea; Lacombe, Alberta, 1997, Grande): 67.0 b
Yield (field pea; Lacombe, Alberta, 1997, Grande): 6507 b
Emergence (field pea; Lacombe, Alberta, 1997, Radley): 87.3 a
Yield (field pea; Lacombe, Alberta, 1997, Radley): 4300 a
increased emergence by (field pea; [7]): 38%
increased yield by (field pea; [7]): 29%
Emergence (field pea; Morden, Manitoba, 1996, Grande): 64.9 a
Yield (field pea; Morden, Manitoba, 1996, Grande): 4541 a
Emergence (field pea; Morden, Manitoba, 1996, Radley): 74.1 a
Yield (field pea; Morden, Manitoba, 1996, Radley): 3286 a
Emergence (field pea; Morden, Manitoba, 1997, Grande): 65.0 a
Yield (field pea; Morden, Manitoba, 1997, Grande): 1878 a
Emergence (field pea; Morden, Manitoba, 1997, Radley): 79.1 a
Yield (field pea; Morden, Manitoba, 1997, Radley): 1064 c
increased yield by (field pea; average of the four station years, two sites): 12%
Dry wt. (Fusarium solani [2]): 0.27 a g/plant
Emergence (Fusarium solani [2]): 57.5 a %
Fresh wt. (Fusarium solani [2]): 2.7 a g/plant
Root rot severity (Fusarium solani [2]): 3.3 ab 0-9
Emergence (Aphanomyces euteiches; 1998, Carneval): 88.1 a
Yield (Aphanomyces euteiches; 1998, Carneval): 6122 a
Emergence (Aphanomyces euteiches; 1998, Radley): 91.9 a
Yield (Aphanomyces euteiches; 1998, Radley): 5110 a
Emergence (Aphanomyces euteiches; 1999, Carneval): 90.3 a
Yield (Aphanomyces euteiches; 1999, Carneval): 4986 a
Emergence (Aphanomyces euteiches; 1999, Radley): 81.0 a
Yield (Aphanomyces euteiches; 1999, Radley): 4315 a
Emergence (Rhizoctonia solani; 1996, AC Tamor): 45.5 a
Yield (Rhizoctonia solani; 1996, AC Tamor): 2497 a
Emergence (Rhizoctonia solani; 1996, Radley): 47.4 a
Yield (Rhizoctonia solani; 1996, Radley): 1589 a
increased emergence by (Rhizoctonia solani; 1996, average of two varieties): 2%
reduced yield by (Rhizoctonia solani; 1996, average of two varieties): 12.5%
effect on emergence (Rhizoctonia solani; 1997): increased emergence significantly
effect on yield (Rhizoctonia solani; 1997): did not increase the yield
Emergence (Rhizoctonia solani; 1997, AC Tamor): 76.0 a
Yield (Rhizoctonia solani; 1997, AC Tamor): 5367 a
Emergence (Rhizoctonia solani; 1997, Radley): 58.6 b
Yield (Rhizoctonia solani; 1997, Radley): 4666 a
Dry wt. (Fusarium oxysporum): 0.34 a g/plant
Emergence (Fusarium oxysporum): 86.3 a %
Fresh wt. (Fusarium oxysporum): 3.1 a g/plant
Root rot severity (Fusarium oxysporum): 1.3 a 0-9
Dry wt. (Sclerotinia sclerotiorum [3]; Field pea (cv. Radley)): 0.23 a g/plant
Emergence (Sclerotinia sclerotiorum [3]; Field pea (cv. Radley)): 68.1 a %
Fresh wt. (Sclerotinia sclerotiorum [3]; Field pea (cv. Radley)): 2.2 a g/plant
Root rot severity (Sclerotinia sclerotiorum [3]; Field pea (cv. Radley)): 3.2 ab 0-9
effect on dry weight compared to the nontreated control (Sclerotinia sclerotiorum [3]; greenhouse experiments): Neither ACM941 nor thiram fungicide showed an increase in dry weight
Emergence (Sclerotinia sclerotiorum [4]; 1996, AC Tamor): 41.8 a
Yield (Sclerotinia sclerotiorum [4]; 1996, AC Tamor): 4327 a
Emergence (Sclerotinia sclerotiorum [4]; 1996, Radley): 48.9 a
Yield (Sclerotinia sclerotiorum [4]; 1996, Radley): 2598 a
Emergence (Sclerotinia sclerotiorum [4]; 1997, AC Tamor): 49.7 a
Yield (Sclerotinia sclerotiorum [4]; 1997, AC Tamor): 5402 b
Emergence (Sclerotinia sclerotiorum [4]; 1997, Radley): 50.5 a
Yield (Sclerotinia sclerotiorum [4]; 1997, Radley): 5049 a
Dry wt. ([5]; Barley, Argyle): 0.32 a g/plant
Emergence ([5]; Barley, Argyle): 93.9 a %
Fresh wt. ([5]; Barley, Argyle): 1.24 a g/plant
Root rot incidence ([5]; Barley, Argyle): 10.8 b %
Root rot severity ([5]; Barley, Argyle): 0.5 b 0-9
Dry wt. ([5]; Barley, Manley): 0.22 a g/plant
Emergence ([5]; Barley, Manley): 84.3 a %
Fresh wt. ([5]; Barley, Manley): 1.04 a g/plant
Root rot incidence ([5]; Barley, Manley): 77.8 a %
Root rot severity ([5]; Barley, Manley): 4.2 ab 0-9
Dry wt. ([5]; Wheat, Katepwa): 0.23 a g/plant
Emergence ([5]; Wheat, Katepwa): 70.7 a %
Fresh wt. ([5]; Wheat, Katepwa): 0.96 a g/plant
Root rot incidence ([5]; Wheat, Katepwa): 12.5 ab %
Root rot severity ([5]; Wheat, Katepwa): 0.7 ab 0-9
Dry wt. ([5]; Wheat, Plenty): 0.16 a g/plant
Emergence ([5]; Wheat, Plenty): 88.4 a %
Fresh wt. ([5]; Wheat, Plenty): 0.79 a g/plant
Root rot incidence ([5]; Wheat, Plenty): 10.1 b %
Root rot severity ([5]; Wheat, Plenty): 0.6 b 0-9
Dry wt. ([5]; Wheat, Sceptre): 0.14 a g/plant
Emergence ([5]; Wheat, Sceptre): 52.4 a %
Fresh wt. ([5]; Wheat, Sceptre): 0.65 a g/plant
Root rot incidence ([5]; Wheat, Sceptre): 24.7 b %
Root rot severity ([5]; Wheat, Sceptre): 1.1 b 0-9
reduced root rot incidence by [5, 8]: 31%
reduced root rot severity by [5, 8]: 38%
Emergence (Fusarium oxysporium; 1996, AC Tamor): 78.3 a
Yield (Fusarium oxysporium; 1996, AC Tamor): 5203 a
Emergence (Fusarium oxysporium; 1996, Radley): 85.9 ab
Yield (Fusarium oxysporium; 1996, Radley): 2442 a
Emergence (Fusarium oxysporium; 1997, AC Tamor): 84.0 a
Yield (Fusarium oxysporium; 1997, AC Tamor): 6625 a
Emergence (Fusarium oxysporium; 1997, Radley): 63.8 ab
Yield (Fusarium oxysporium; 1997, Radley): 5037 b
Dry wt. (Mycosphaerella pinodes): 0.32 a g/plant
Emergence (Mycosphaerella pinodes): 67.5 a %
Fresh wt. (Mycosphaerella pinodes): 3.1 a g/plant
Root rot severity (Mycosphaerella pinodes): 2.3 a 0-9
